Reference: ChEMBL document CHEMBL5375947, “Discovery of Efficient Hypoxia-Targeted NO Donor Compounds to Alleviate Hypoxia Cardiac Disease” (J Med Chem, 2023)
Active and inactive are the calls of the source. The calls are words filed in the database; no cut-off is given here.

Key:
H9c2 [1] = assay: Induction of NO release in rat H9c2 cells at 10 uM under normoxia condition by griess reagent based assay; type: functional
H9c2 [2] = assay: Induction of NO release in rat H9c2 cells at 10 uM under hypoxia condition by DAF-FM fluorescence probe based spectroscopic assay; type: functional, cell-based
Mus musculus [3] = assay: Vasodilation activity against hypoxia-induced myocardial injury ip dosed C57 mouse model assessed as vascular obstruction areas low dose administered twice a day for 3 days; type: functional, organism-based; conditions: time 3.0 day
Mus musculus [4] = assay: Vasodilation activity against hypoxia-induced myocardial injury ip dosed C57 mouse model assessed as vascular obstruction areas high dose administered twice a day for 3 days; type: functional, organism-based; conditions: time 3.0 day
[5] = Toxicity in C57 mouse assessed as reduction in heart weight at high dose administered twice a day for 3 days (reference value: 0.56g); conditions: in vivo, 72 h, time 3 day
[6] = Toxicity in C57 mouse assessed as increase in cardiac swelling at 12 mg/kg, ip administered twice a day for 3 days; type: organism-based; conditions: in vivo, 72 h, time 3 day
[7] = Stability of compound in PBS at pH 7.4 by HPLC analysis; type: physicochemical; conditions: buffer
Mus musculus [8] = assay: Protection against hypoxia-induced myocardial injury ip dosed C57 mouse model assessed as collagen fiber proliferation at low dose administered twice a day for 3 days by masson staining based analysis; type: functional, organism-based; conditions: time 3.0 day
H9c2 [9] = assay: Downregulation of ACE expression in rat H9c2 cells at 5 to 10 uM by Western blot analysis; type: functional, cell-based; conditions: dose 5-10 µM
[10] = Toxicity in C57 mouse assessed as reduction in heart weight at low dose administered twice a day for 3 days (reference value: 0.56g); conditions: in vivo, 72 h, time 3 day
Mus musculus [11] = assay: Induction of NO release in C57 mouse at 4 to 12 mg/kg, ip administered twice a day for 3 days; type: functional, organism-based; conditions: dose 4-12 mg/kg, time 3.0 day
H9c2 [12] = assay: Downregulation of mTORC1 expression in rat H9c2 cells at 5 uM by Western blot analysis; type: functional, cell-based
H9c2 [13] = assay: Cytotoxicity against rat H9c2 cells assessed as reduction in cell viability at 0.01 to 10 uM under normoxia condition by CCK-8 assay; type: toxicity, cell-based; conditions: h9c2, 10 µM, dose 0.01-10 µM
H9c2 [14] = assay: Induction of NO release in rat H9c2 cells at 5 to 10 uM under hypoxia condition by griess reagent based assay; type: functional, cell-based; conditions: dose 5-10 µM
Mus musculus [15] = assay: Protection against hypoxia-induced myocardial injury ip dosed C57 mouse model assessed as cellular arrangement disorder at low dose administered twice a day for 2 days by H and E staining based analysis; type: functional, organism-based; conditions: time 2.0 day
H9c2 [16] = assay: Anti-apoptotic activity in rat H9c2 cells assessed as late apoptotic cells by measuring red fluorescence intensity by annexin V-FITC/PI staining based confocal microscopic analysis; type: functional, cell-based
H9c2 [17] = assay: Upregulation of TSC2-p expression in rat H9c2 cells at 5 to 10 uM by Western blot analysis; type: functional, cell-based; conditions: dose 5-10 µM
H9c2 [18] = assay: Downregulation of mTORC1 expression in rat H9c2 cells at 5 to 10 uM by Western blot analysis; type: functional, cell-based; conditions: dose 5-10 µM
H9c2 [19] = assay: Downregulation of ACE expression in rat H9c2 cells at 5 uM by Western blot analysis; type: functional, cell-based
H9c2 [20] = assay: Recovery of myocardial cell viability in rat H9c2 cells assessed as increase in ATP level at 10 micromol/L measured per mg of protein under hypoxia condition by fluorescence based assay; type: functional; conditions: dose 10 µmol/L
H9c2 [21] = assay: Recovery of myocardial cell viability in rat H9c2 cells at 0.01 to 10 uM under hypoxia condition by CCK-8 assay; type: functional, cell-based; conditions: dose 0.01-10 µM
[22] = Toxicity in C57 mouse assessed as increase in cardiac swelling at 4 mg/kg, ip administered twice a day for 3 days; type: organism-based; conditions: in vivo, 72 h, time 3 day
[23] = Toxicity in C57 mouse assessed as increase in body weight at 4 mg/kg, ip administered twice a day for 3 days; type: organism-based; conditions: in vivo, 72 h, time 3 day
H9c2 [24] = assay: Recovery of myocardial cell viability in rat H9c2 cells under hypoxia condition by CCK-8 assay; type: functional, cell-based; conditions: dose 10.0 µM
H9c2 [25] = assay: Induction of NO release in rat H9c2 cells at 10 uM under hypoxia condition by griess reagent based assay; type: functional
H9c2 [26] = assay: Recovery of myocardial cell viability in rat H9c2 cells at 0.01 to 1 uM under hypoxia condition by CCK-8 assay; type: functional, cell-based; conditions: dose 0.01-1 µM
Mus musculus [27] = assay: Protection against hypoxia-induced myocardial injury C57 mouse model assessed as cellular arrangement disorder at 12 mg/kg, ip administered twice a day for 2 days by H and E staining based analysis; type: functional, organism-based; conditions: time 2.0 day
Mus musculus [28] = assay: Vasodilation activity against hypoxia-induced myocardial injury C57 mouse model assessed as vascular obstruction areas at 12 mg/kg, ip administered twice a day for 3 days; type: functional, organism-based; conditions: time 3.0 day
[29] = Toxicity in C57 mouse assessed as reduction in heart weight at 12 mg/kg, ip administered twice a day for 3 days (reference value: 0.56g); type: organism-based; conditions: in vivo, 72 h, time 3 day
Mus musculus [30] = assay: Induction of NO release in C57 mouse at 4 mg/kg, ip administered twice a day for 3 days; type: functional; conditions: time 3 day
[31] = Toxicity in C57 mouse assessed as ratio of heart weight to body weight at 4 mg/kg IG administered twice a day for 3 days; type: organism-based; conditions: in vivo, po, 72 h, time 3 day
H9c2 [32] = assay: Induction of NO release in rat H9c2 cells at 10 uM measured at 30 mins under hypoxia condition by griess reagent based assay; type: functional; conditions: 0.5 h
H9c2 [33] = assay: Induction of NO release in rat H9c2 cells at 10 uM measured upto 12 hrs under hypoxia condition by griess reagent based assay; type: functional, cell-based
H9c2 [34] = assay: Induction of NO release in rat H9c2 cells under hypoxia condition by griess reagent based assay; type: functional, cell-based; conditions: dose <= 15.0 µM
H9c2 [35] = assay: Induction of NO release in rat H9c2 cells at 10 uM measured at 4 hrs under hypoxia condition by griess reagent based assay; type: functional, cell-based
H9c2 [36] = assay: Effect on ACE expression in rat H9c2 cells at 1 uM by Western blot analysis; type: functional, cell-based
H9c2 [37] = assay: Effect on TSP1 expression in rat H9c2 cells at 10 uM by Western blot analysis; type: functional, cell-based
H9c2 [38] = assay: Effect on TSC2-p expression in rat H9c2 cells by Western blot analysis; type: functional, cell-based; conditions: dose 0.01-1 µM
Mus musculus [39] = assay: Protection against hypoxia-induced myocardial injury ip dosed C57 mouse model assessed as downregulation of ACE expression in heart at low dose administered twice a day for 3 days by immunohistochemistry analysis; type: functional, organism-based; conditions: time 3.0 day
Mus musculus [40] = assay: Protection against hypoxia-induced myocardial injury ip dosed C57 mouse model assessed as downregulation of ACE expression in heart at high dose administered twice a day for 3 days by immunohistochemistry analysis; type: functional, organism-based; conditions: time 3.0 day
H9c2 [41] = assay: Induction of NO release in rat H9c2 cells at 5 to 15 uM under hypoxia condition by griess reagent based assay; type: functional, cell-based; conditions: dose 5-15 µM
H9c2 [42] = assay: Induction of NO release in rat H9c2 cells at 10 uM measured at 4 hrs under normoxia condition by griess reagent based assay; type: functional
Mus musculus [43] = assay: Protection against hypoxia-induced myocardial injury ip dosed C57 mouse model assessed as cellular arrangement disorder at high dose administered twice a day for 2 days by H and E staining based analysis; type: functional, organism-based; conditions: time 2.0 day
Mus musculus [44] = assay: Protection against hypoxia-induced myocardial injury C57 mouse model assessed as downregulation of ACE expression in heart at 12 mg/kg, IG administered twice a day for 3 days by immunohistochemistry analysis; type: functional, organism-based; conditions: time 3.0 day
[45] = Toxicity in C57 mouse assessed as increase in body weight at 4 to 12 mg/kg IG administered twice a day for 3 days; type: organism-based; conditions: in vivo, po, 72 h, dose 4-12 mg/kg, time 3 day
Mus musculus [46] = assay: Protection against hypoxia-induced myocardial injury IG dosed C57 mouse model assessed as collagen fiber proliferation at low dose administered twice a day for 3 days by masson staining based analysis; type: functional, organism-based; conditions: time 3.0 day
[47] = Toxicity in C57 mouse assessed as ratio of heart weight to body weight at 4 to 12 mg/kg IG administered twice a day for 3 days; type: organism-based; conditions: in vivo, po, 72 h, dose 4-12 mg/kg, time 3 day
Mus musculus [48] = assay: Protection against hypoxia-induced myocardial injury ip dosed C57 mouse model assessed as downregulation of mTORC1 expression in heart at high dose administered twice a day for 3 days by immunohistochemistry analysis; type: functional, organism-based; conditions: time 3.0 day
Mus musculus [49] = assay: Protection against hypoxia-induced myocardial injury C57 mouse model assessed as reduction in collagen fiber proliferation at 12 mg/kg, IG administered twice a day for 3 days by masson staining based analysis; type: functional, organism-based; conditions: time 3.0 day
Mus musculus [50] = assay: Protection against hypoxia-induced myocardial injury ip dosed C57 mouse model assessed as downregulation of mTORC1 expression in heart at low dose administered twice a day for 3 days by immunohistochemistry analysis; type: functional, organism-based; conditions: time 3.0 day

## Cc1ccc(COC(=O)Oc2ccc(N(C)N=O)cc2)c([N+](=O)[O-])c1
H9c2 [1]
  Activity: <2%

## CN(N=O)c1ccc(OC(=O)OCc2ccc([N+](=O)[O-])cc2)cc1
H9c2 [2]
  Activity: Active
Mus musculus [3]
  Activity: Active
Mus musculus [4]
  Activity: Active
[5]
  Activity: 0.48 g
[6]
  Activity: Toxic
[7]
  Stability: 0.41%
Mus musculus [8]
  Activity: inactive
H9c2 [1]
  Activity: <2%
H9c2 [9]
  Activity: Active
[10]
  Activity: 0.57 g
Mus musculus [11]
  Activity: Active
H9c2 [12]
  Activity: inactive
H9c2 [13]
  Activity: Non-Toxic
H9c2 [14]
  Activity: Active
Mus musculus [15]
  Activity: Active
H9c2 [16]
  Activity: Active
H9c2 [17]
  Activity: Active
H9c2 [18]
  Activity: Active
H9c2 [19]
  Activity: inactive
H9c2 [20]
  Activity: 37.5 nmol
H9c2 [21]
  Activity: Active
[22]
  Activity: Non-Toxic
[23]
  Activity: Non-Toxic
H9c2 [24]
  Activity: Dose-Dependent Effect
H9c2 [25]
  Activity: 24.38%
H9c2 [26]
  Activity: Active

## CN(N=O)c1ccc(OC(=O)OCc2cc(Cl)ccc2[N+](=O)[O-])cc1
H9c2 [1]
  Activity: <2%

## O=[N+]([O-])O[C@H]1CO[C@H]2[C@@H]1OC[C@H]2O[N+](=O)[O-] [ISOSORBIDE DINITRATE]
Mus musculus [27]
  Activity: Active
H9c2 [1]
  Activity: 36.89%
Mus musculus [28]
  Activity: inactive
[29]
  Activity: 0.51 g
Mus musculus [30]
  Activity: 54%
H9c2 [13]
  Activity: Non-Toxic
H9c2 [16]
  Activity: Active
H9c2 [20]
  Activity: 28.7 nmol
H9c2 [21]
  Activity: Active
[31]
  Ratio: 0.59
[23]
  Activity: Non-Toxic
H9c2 [32]
  Activity: ~30%
H9c2 [33]
  Activity: Active
H9c2 [25]
  Activity: 27.41%
H9c2 [34]
  Activity: Dose-Dependent Effect

## CN(N=O)c1ccc(OC(=O)OCc2ccccc2[N+](=O)[O-])cc1
H9c2 [1]
  Activity: <2%
H9c2 [25]
  Activity: >20%

## Cc1ccc([N+](=O)[O-])c(COC(=O)Oc2ccc(N(C)N=O)cc2)c1
H9c2 [1]
  Activity: <2%

## Cc1cc([N+](=O)[O-])ccc1COC(=O)Oc1ccc(N(C)N=O)cc1
H9c2 [2]
  Activity: Active
H9c2 [35]
  Activity: Active
H9c2 [36]
  Activity: Active
H9c2 [37]
  Activity: Active
Mus musculus [3]
  Activity: Active
Mus musculus [4]
  Activity: Active
[5]
  Activity: 0.48 g
[6]
  Activity: Toxic
Mus musculus [8]
  Activity: Active
H9c2 [1]
  Activity: <2%
H9c2 [38]
  Activity: Dose-Dependent Effect
H9c2 [9]
  Activity: Active
Mus musculus [39]
  Activity: Active
[10]
  Activity: 0.52 g
Mus musculus [40]
  Activity: Active
Mus musculus [11]
  Activity: Active
H9c2 [13]
  Activity: Non-Toxic
H9c2 [14]
  Activity: Active
Mus musculus [15]
  Activity: Active
H9c2 [16]
  Activity: Active
H9c2 [17]
  Activity: Active
H9c2 [41]
  Activity: Active
H9c2 [42]
  Activity: 0%
Mus musculus [43]
  Activity: Active
H9c2 [20]
  Activity: 44 nmol
Mus musculus [44]
  Activity: Active
[45]
  Activity: Non-Toxic
H9c2 [21]
  Activity: Active
Mus musculus [46]
  Activity: Active
[23]
  Activity: Non-Toxic
H9c2 [32]
  Activity: 28%
[47]
  Ratio: 0.56
H9c2 [33]
  Activity: Active
Mus musculus [48]
  Activity: Active
Mus musculus [49]
  Activity: Active
H9c2 [25]
  Activity: 43.21%
Mus musculus [50]
  Activity: Active

## CN(N=O)c1ccc(OC(=O)OCc2ccc(Cl)cc2[N+](=O)[O-])cc1
H9c2 [1]
  Activity: <2%

## CN(N=O)c1ccc(OC(=O)OCc2ccc([N+](=O)[O-])cc2Cl)cc1
H9c2 [1]
  Activity: <2%
H9c2 [25]
  Activity: >20%

## CN(N=O)c1ccc(OC(=O)OCc2ccc(Br)cc2[N+](=O)[O-])cc1
H9c2 [1]
  Activity: <2%
